Columns and labels:
Assay type in all cases: cell-based, Camptotheca acuminata
Ca32236/CPT10H = experiment: In vivo yeast biotransformation / substrate scope assay with CPT 10-hydroxylase; details: for Conversion rate (%): substrate converted to hydroxylated product, yeast in vivo assay, 1 L culture, calculated based on LCMS analysis
Description: (§1) For heterologous expression of Flag-tagged CYP450s in yeast (Saccharomyces cerevisiae), the full-length coding region of each CYP450 candidate was cloned between SpeI and NcoI restriction sites of MCS1 of the dual plasmid pESC-Leu2d with a cytochrome P450 reductase (CPR) in MCS2 (Dang et al 2018, Nature Chemical Biology 14, 760-763; Rot al 2008, BMC biotechnology 8, 83) yielding pESC-Leu2d::CYP/CPR using In-Fusion cloning system (Takara Clontech). The resulted pESC-Leu2d::CYP/CPR was transformed to the protease-deficient yeast strain YPL 154C:Pep4KO, and yeast harbouring pESC-Leu2d::CPR was used as the negative control. To optimize HCPT production, Δerg6 Δtop1 yeast double mutant strain SMY75-1.4A43 was used, which was previously generated to allow better penetration of, and improved resistance to, topoisomerase I inhibitors such as CPT. The conditions for yeast culture, microsome preparation, and immunoblot analysis are further described below.
(§2) For screening in vivo CPT oxidation activities, 10 μM CPT was fed to 100-μL, cultures of YPLC 154C:Pep4KO yeast transformed with the vector for 48 h. The culture volume can be scaled up to 2 L with the camptothecin concentration up to 50 μM to produce sufficient products for structural characterization and/or semi-synthesis of camptothecin derivatives. Standard in vitro assays were performed at 30 C for 1 hour in 100 μL of 100 mM HEPES-NaOH (pH 7.5) containing […] of total microsomal proteins, 50 μM substrate (FIGS. 6) and 250 μM NADPH on a gyratory shaker with agitation (750 rpm). Reactions were stopped by adding 800 μL methanol. The reaction mixture was extracted twice with methanol to precipitate and remove proteins. The supernatant was subjected to LC-MS/MS analysis
(§3) For routine yeast culture, the transgenic yeast strain was inoculated in 2 mL of synthetic complete (SC) medium lacking leucine (SC-Leu) containing 2% (w/v) glucose and cultured overnight at 30 °C and 250 rpm. The culture was subsequently diluted 100-fold to an OD600 of 0.05 in SC-Leu supplemented with 2% (w/v) glucose and cultured for 16 hr. Yeast was then harvested and sub-cultured for 24 hr in YPA medium containing 2% (w/v) galactose to induce the production of recombinant CYP450s. Yeast cells were harvested by centrifugation and lysed for 2 min using a micro-bead beater (VWR) and 500-μm diameter glass beads in TES (0.6 M sorbitol in TE) buffer. The resulting lysate was subsequently centrifuged at 10,000 g for 15 min at 4 C. The supernatant was then transferred to a new tube and centrifuged at 40,000 g for 60 min at 4 C. Finally, the pellet containing microsomes was resuspended with TEG buffer (20% (v/v) glycerol in TE). Expression of Ca32229 and Ca32236 was confirmed by immunoblot analysis of microsomal fractions prepared from S. cerevisiae cultures harbouring the pESC-Leu2d::CPR/Ca32229 and pESC-Leu2d::CPR/Ca32236 vectors using α-FLAG M2 antibodies (ThermoFisher Scientific) detectable with SuperSignal West Pico Chemiluminescent Substrate (ThermoFisher Scientific) to probe epitope-tagged recombinant proteins (FIG. 6).
(§4) Enzyme assays were analyzed by ultra-performance liquid chromatography (UPLC) on a Xevo TQ-S Cronos Triple Quadrupole Mass Spectrometry (Waters). For all studies, chromatography was performed on an XBridge BEH XP (10×2.1 mm, 1.7 μm) column at a flow rate of 0.6 mL.min−1. The column was equilibrated in solvent A (0.1% formic acid) and the following elution conditions were used: 0 min, 5% B (100% acetonitrile); from 0 to 3.5 min, 35% B; from 3.5 min to 3.75 min, 100% B; 3.75 min to 4.75, 100% B; 4.75 to 6 min, 5% B to re-equilibrate the column. Data were analyzed with MassLynx and TargetLynx (Waters).
(§5) A calibration curve using camptothecin from 0-50 nM was made for quantification. Peaks areas of LC-MS chromatograms were calculated using MassLynx and TargetLynx from Waters and normalized. […]

Ca32229/CPT11H = experiment: In vivo yeast biotransformation / substrate scope assay with CPT 11-hydroxylase; details: for Conversion rate (%): substrate converted to hydroxylated product, yeast in vivo assay, 1 L culture, calculated based on LCMS analysis; for acceptance as substrate / conversion: substrate scope, Example 4
Description: as §1, §2, §3, §4, §5

[1] = system: camptothecin hydroxylases (CPTHs), Ca32236 (CPT 10-hydroxylase) and Ca32229 (CPT 11-hydroxylase); experiment: In vivo conversion in yeast expressing CPT hydroxylases (enzyme not distinguished); details: for conversion rate to hydroxylated product, scale-up: 50 μM substrate, after 48-hr inoculation, LCMS; for acceptance as substrate (substrate specificity, FIG. 9): Ca32236 and Ca32229, different conversion rates
Description: as §1, §2
A calibration curve using camptothecin from 0-50 nM was made for quantification. Peaks areas of LC-MS chromatograms were calculated using MassLynx and TargetLynx from Waters and normalized. The amount of substrate consumption, product formation, conversion, and total product yield was quantified using corresponding calibration curves.
To generate sufficient amounts of HCPTs (10 and 11HCPT) and 7-ethyl-HCPT (7-ethyl-10 and 11HCPT) for the synthesis of topotecan, irinotecan and other compounds, enzymatic reactions was scaled up. The transgenic yeast strain was inoculated in 2 mL of synthetic complete medium lacking leucine (SC-Leu) containing 2% (w/v) glucose and cultured overnight at 30° C. and 275 rpm. The culture was subsequently diluted to an OD600 of 0.05 in SC-Leu supplemented with 2% (w/v) glucose and cultured for 16 hr. The yeast was then harvested and sub-cultured for 48 hr in YPA medium containing 2% (w/v) galactose, and 10% glycerol to induce the production of recombinant CYP450s. CPT or 7-ethyl-CPT substrate was fed directly into the culture to reach a final concentration of 50 μM as soon as the yeast was switched from SC-Leu to YPA medium. After 48-hr inoculation, a conversion rate of approximately 70% from CPT or 7-ethyl-CPT to its hydroxylated product was obtained and confirmed by LCMS analysis. The supernatant was collected by centrifugation at 4000 rpm, for 5 minutes. HCPT and 7-ethyl-HCPT were extracted out of reaction matrix by liquid-liquid extraction with ethyl acetate and chloroform, respectively. The solvent was removed by using a rotary evaporator to obtain crude HCPT and 7-ethyl-HCPT substrates for chemical synthesis to topotecan and irinotecan. HCPT and 7-ethyl-HCPT were purified by semi-preparative HPLC prior to the synthesis of derivatives.
A key advantage of the cytochrome P450 monooxygenase enzymes lies in the opportunity to functionalize the inert C—H bond and to further diversify the products to obtain valuable CPT-based scaffolds. […] First, the enzymatic conversion of CPT to HCPTs in yeast expressing CPT hydroxylases was optimized. The initial in vivo conversion rate maximized at 10% (FIG. 2), possibly because CPT is insoluble and the native yeast topoisomerase I is sensitive to CPT. […]

CCc1c2c(nc3ccccc13)-c1cc3c(c(=O)n1C2)COC(=O)[C@]3(O)CC [Compound 7-EthylCPT, 7-ethylcamptothecin]
Conversion rate (%) (Ca32236/CPT10H): 8% | acceptance as substrate (Ca32236/CPT10H; substrate scope, Example 4): accepted | Conversion rate (%) (Ca32229/CPT11H): 32% | acceptance as substrate (Ca32229/CPT11H): accepted | conversion rate to hydroxylated product, scale-up [1]: approximately 70% | acceptance as substrate (substrate specificity, FIG. 9) [1]: accepted as substrates

evodiamine
acceptance as substrate (substrate specificity, FIG. 9) [1]: accepted as substrates

CCC1(O)C(=O)OCc2c1cc1n(c2=O)Cc2cc3cc(O)ccc3nc2-1 (stereo not drawn) [10-HydroxyCPT, 10-hydroxycamptothecin]
Conversion rate (%) (Ca32229/CPT11H): 11% | acceptance as substrate (Ca32229/CPT11H): accepted | conversion (Ca32229/CPT11H): 7% | acceptance as substrate (substrate specificity, FIG. 9) [1]: accepted as substrates

CCC1(O)C(=O)OCc2c1cc1n(c2=O)Cc2cc3ccc(O)cc3nc2-1 (stereo not drawn) [Compound 11HCPT, 11-hydroxycamptothecin]
acceptance as substrate (Ca32236/CPT10H; substrate scope, Example 4): not accepted

CC[C@@]1(O)C(=O)OCc2c1cc1n(c2=O)Cc2cc3c(N)cccc3nc2-1 [Compound 9-AminoCPT, 9-amino-camptothecin]
Conversion rate (%) (Ca32236/CPT10H): 9% | conversion rate (Ca32236/CPT10H; substrate scope, Example 4): 9% | Conversion rate (%) (Ca32229/CPT11H): 9% | conversion (Ca32229/CPT11H): 9% | acceptance as substrate (substrate specificity, FIG. 9) [1]: accepted as substrates

CC[C@@]1(O)C(=O)OCc2c1cc1n(c2=O)Cc2cc3ccccc3nc2-1 [CPT, camptothecin]
Conversion rate (%) (Ca32236/CPT10H): 67% | Conversion rate (%) (Ca32229/CPT11H): 62% | conversion rate to hydroxylated product, scale-up [1]: approximately 70% | initial in vivo conversion rate ([1]; CPT to HCPTs, before optimization): ≤ 10% | acceptance as substrate (substrate specificity, FIG. 9) [1]: accepted as substrates | conversion in SMY75-1.4A yeast strain ([1]; SMY75-1.4A (Δerg6 Δtop1) yeast strain): up to 67% | yield (conversion) after growth optimization ([1]; transgenic yeast in YPA medium with 2% galactose and 10% glycerol for 48 hrs): up to 40%

— US20240084272A1, “CYTOCHROME P450 MONOOXYGENASES AND USES THEREOF” (THE UNIVERSITY OF BRITISH COLUMBIA, priority 2020, published 2024)
